“Also recorded” adds a separate entry of the source.
Experiments:
[1] = tested on: stomach and esophagus of pigs (submucosal space); experiment: Submucosal cushion/lift and hemostasis in endoscopic resection procedures in a porcine model; type: in vivo
Experimental: Solutions of (RADA)4 (RADARADARADARADA; SEQ ID NO: 1) in water were prepared. Concentrations of (RADA)4 (SEQ ID NO: 1) were between from 1% and 3% w/v. Methylene blue or indigo carmine dye (0.1 to 0.4%) was added to the solution in some experiments, and excluded from the solution in other experiments.
Pigs were randomly assigned to control or experimental groups. Animals were anesthetized. Multiple (>20) endoscopic procedures (EMD and ESD) were performed in different areas of the stomach of pigs, including the pylorus, and the esophagus, including the sphincter. In some experiments, polyps had previously been created by applying bands to the mucosa.
The (RADA)4 (SEQ ID NO: 1) solutions (experimental animals) or saline or ELEVIEW™ (control animals) were administered into the submucosal space through 2.2 mm channel diameter, 230 cm long catheters that have either 25 gauge needle tips or spray tips on the end to form a cushion. In some experiments, catheters having different diameters were used as well as multiple internal channels. The products were delivered from a prefilled syringe or mixed from a kit prior to delivery.

[2] = Gel formation of (RADA)4 solutions mixed with dextran sulfate solution; type: physicochemical; settings: 1%-3% solutions mixed with dextran sulfate solution (0.5 and 1%)

For RADARADARADARADA [(RADA)4], the “duration of submucosal lift” value ([1]; pig gastric antrum, delivered through 25G endoscopic injection needle) was greater than 2 h, the “use with clips as sealant at post-polypectomy site” value ([1]; pig, applied following application of clips) was “useful in conjunction with clips as a potential sealant” and the “hemostasis in actively bleeding lesions” value ([1]; pig, applied topically or injected into mucosa near the bleeding site, with or without visualizing agent) was “provide hemostasis in actively bleeding lesions; also recorded: stopped bleeding promptly, typically within seconds”. The “durability of cushions versus controls” value ([1]; pig, compared with ELEVIEW™ and saline) was “lasting longer than ELEVIEW™ and saline controls”, the “bleeding after polyp removal / tissue resection” value ([1]; pig, submucosal injection before dissection (prophylactic hemostasis)) was “no visible bleeding was observed following polyp removal; also recorded: minimal to no bleeding in most lesions was observed” and the “time over which the tunnel opening could easily be found after removing and reinserting equipment” value ([1]; pig, submucosal tunnel through cushion) was “typically more than an hour”. The gel formation [2] was “formed space occupying gels”.

Source: patent publication US12390552B2, “Self-assembling peptide gel formulation and methods of use” (Arch Biosurgery, Inc., priority 2020, dated 2025)
